From US12122775B1, “Substituted pyrido[4,3-e]pyrrolo[1,2-a]pyrazines as CK2 inhibitors” (KING FAISAL UNIVERSITY, priority 2024, dated 2024)

Assays:
PC3 (prostate) = assay: In vitro cytotoxic activity MTT assay, PC3; assay type: cell-based; conditions: Homo sapiens, Prostate cell; PC3 (prostate) cells, exposed for 96 hours; read-out: Cytotoxicity activity IC50 (50% inhibition of cell proliferation)
Description: (§1) Compounds 1-16 were screened for their in vitro cytotoxic activity utilizing a 3-(4,5-dimethyl-thiazol-2-yl)-2,5-diphenyltetrazolium bromide (MTT) assay against selected cancer human cell lines consisting of PC3 (prostate), HCT116 (colon), A375 (melanoma), H1299 (lung), MIAPaCa-2 (pancreas), HL60 (leukemia), MCF7 (breast), MDA-MB-231 (breast) (T. Mosmann, J. Immunol. Meth., 1983, 65, 55-63). The cells were cultured at 37° C. in RMPI1640 medium supplemented with 10% fetal bovine serum, 50 IU/mL penicillin, and 50 μg/mL streptomycin in a 5% CO2 incubator. All cells were sub-cultured 3 times/week by trypsinisation. Viable cells were seeded and allowed to adhere for 12 hours before a test drug was added in 96-well plates at an initial density of 1.0×10^5 cells/mL. Tumor cell lines were separately exposed to various concentrations of the tested compounds followed by incubation at a temperature of 37° C. during 96 hours inside a medium of fresh RMPI 1640. Cells were subsequently incubated at 37° C. using MTT at 0.5 mg/mL during 4 hours. After removal of supernatant, formazan crystals were dissolved in isopropanol and the optical density was measured at 570 nm. CX-4945 was used as a positive control.

HCT116 (colon) = assay: In vitro cytotoxic activity MTT assay, HCT116; assay type: cell-based; conditions: Homo sapiens, HCT-116; HCT116 (colon) cells, exposed for 96 hours; read-out: Cytotoxicity activity IC50 (50% inhibition of cell proliferation)
Description: as §1

A375 (melanoma) = assay: In vitro cytotoxic activity MTT assay, A375; assay type: cell-based; conditions: Homo sapiens, A-375; A375 (melanoma) cells, exposed for 96 hours; read-out: Cytotoxicity activity IC50 (50% inhibition of cell proliferation)
Description: as §1

H1299 (lung) = assay: In vitro cytotoxic activity MTT assay, H1299; assay type: cell-based; conditions: Homo sapiens, NCI-H1299; H1299 (lung) cells, exposed for 96 hours; read-out: Cytotoxicity activity IC50 (50% inhibition of cell proliferation)
Description: as §1

MIAPaCa-2 (pancreas) = assay: In vitro cytotoxic activity MTT assay, MIAPaCa-2; assay type: cell-based; conditions: Homo sapiens, MIA PaCa-2; MIAPaCa-2 (pancreas) cells, exposed for 96 hours; read-out: Cytotoxicity activity IC50 (50% inhibition of cell proliferation)
Description: as §1

HL60 (leukemia) = assay: In vitro cytotoxic activity MTT assay, HL60; assay type: cell-based; conditions: Homo sapiens, HL-60; HL60 (leukemia) cells, exposed for 96 hours; read-out: Cytotoxicity activity IC50 (50% inhibition of cell proliferation)
Description: as §1

MCF7 (breast) = assay: In vitro cytotoxic activity MTT assay, MCF7; assay type: cell-based; conditions: Homo sapiens; MCF7 (breast) cells, exposed for 96 hours; read-out: Cytotoxicity activity IC50 (50% inhibition of cell proliferation)
Description: as §1

MDA-MB-231 (breast) = assay: In vitro cytotoxic activity MTT assay, MDA-MB-231; assay type: cell-based; conditions: Homo sapiens; MDA-MB-231 (breast) cells, exposed for 96 hours; read-out: Cytotoxicity activity IC50 (50% inhibition of cell proliferation)
Description: as §1

[1] = target: T1, recombinant human CK2 (RRββ-holoenzyme) (Homo sapiens, UniProt P68400); assay: CK2 Kinase Assay (radiometric, [γ-33P] ATP); assay type: biochemical; conditions: final ATP concentration 15 μM, 10 min at 30° C., eight concentrations; read-out: protein kinase CK2 activity IC50
T1 construct: purchased Millipore
T1 sequence (P68400 whole entry): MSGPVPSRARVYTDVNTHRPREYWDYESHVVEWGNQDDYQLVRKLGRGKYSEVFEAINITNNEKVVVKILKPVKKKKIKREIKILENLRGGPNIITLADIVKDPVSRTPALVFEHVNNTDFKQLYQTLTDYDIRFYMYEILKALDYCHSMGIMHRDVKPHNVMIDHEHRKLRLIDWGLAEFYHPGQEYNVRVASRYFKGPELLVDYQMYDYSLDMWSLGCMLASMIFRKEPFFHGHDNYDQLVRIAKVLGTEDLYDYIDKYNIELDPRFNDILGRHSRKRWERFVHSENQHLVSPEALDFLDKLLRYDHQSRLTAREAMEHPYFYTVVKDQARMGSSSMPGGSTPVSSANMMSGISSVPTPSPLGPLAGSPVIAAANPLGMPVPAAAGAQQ
T1 sequence (P67870 whole entry partner): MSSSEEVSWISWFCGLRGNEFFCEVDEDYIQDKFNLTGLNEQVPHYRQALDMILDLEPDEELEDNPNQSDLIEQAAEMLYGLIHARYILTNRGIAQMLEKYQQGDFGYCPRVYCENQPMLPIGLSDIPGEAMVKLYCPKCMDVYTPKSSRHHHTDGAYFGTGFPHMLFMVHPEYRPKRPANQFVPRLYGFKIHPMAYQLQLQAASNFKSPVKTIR
Description: CK2 Kinase Assay was conducted using the protocol as described in Pierre F. et al; J. Med. Chem. 2011, 54, 635-654. The tested compounds in aqueous solution were added at a volume of 10 μL to a reaction mixture comprising 10 μL of assay dilution buffer (ADB; 20 mM MOPS, pH 7.2, 25 mM β-glycerol phosphate, 5 mM EGTA, 1 mM sodium orthovanadate, and 1 mM dithiothreitol), 10 μL of substrate peptide (RRRDDDSDDD, dissolved in ADB at a concentration of 1 mM), 10 μL of recombinant human CK2 (RRββ-holoenzyme, 25 ng dissolved in ADB; Millipore). Reactions were initiated by the addition of 10 μL of ATP solution (90%75 mM MgCl2, 75 μM ATP (final ATP concentration: 15 μM) dissolved in ADB; 10% [γ-33P] ATP (stock 1 mCi/100 μL; 3000 Ci/mmol (Perkin-Elmer) and maintained for 10 min at 30° C. The reactions were quenched with 100 μL of 0.75% phosphoric acid and then transferred to and filtered through a phosphor cellulose filter plate (Millipore). After washing each well five times with 0.75% phosphoric acid, the plate was dried under vacuum for 5 min and, following the addition of 15 μL of scintillation fluid to each well, the residual radioactivity was measured using a Wallac […]. The IC50 values were derived from eight concentrations of test inhibitors.

Q: Which results are given for `O=C(O)c1ccn2c1c(Nc1cccc(Cl)c1)nc1ccncc12` [Compound 1, 6-((3-chlorophenyl)amino)pyrido[4,3-e]pyrrolo[1,2-a]pyrazine-7-carboxylic acid]?
A: IC50 (PC3 (prostate)): 2.8 µM; IC50 (HCT116 (colon)): 1.5 µM; IC50 (A375 (melanoma)): 4.6 µM; IC50 (H1299 (lung)): 2.1 µM; IC50 (MIAPaCa-2 (pancreas)): 1.7 µM; IC50 (HL60 (leukemia)): 3.2 µM; IC50 (MCF7 (breast)): 5.9 µM; IC50 (MDA-MB-231 (breast)): 5.3 µM; IC50 [1]: 0.091 µM
